Results as given in ChEMBL document CHEMBL3430912, “GSK Tres Cantos Anti-Kinetoplastid Screening (TCAKS) Data”.

Columns and labels:
Trypanosoma cruzi [1] = assay: GSK_TCAKS: pIC50 Trypanosoma cruzi viability assay using beta-GAL activity. This assay was run at single shot at 5uM compound concentration per well. The biological reagents consisted of NIH-3T3 host cells and trypomastigotes parasitic cells; both cell types were set to a 3.3 * 10^5 cells/mL dilution in assay DMEM by means of a CASY cell counter device using a 60um capillary. 6 uL of the mixture were dispensed per well (about 1 * 10^3 host-cells and 1 * 10^3 parasites) with a Multidrop Combi dispenser. […] In all wells, the percentage of DMSO never exceeded 0.5%. Plates incubated for four days at 37C, 5% CO2. The substrate used for the assay fluorescence intensity (FLINT) readout was resorufin-beta-D-galactopiranoside (Sigma-Aldrich) at 5uM per well. It was diluted in PBS supplemented with the soft detergent Igepal (Fluka).; assay type: functional, organism-based, Mus musculus; conditions: Tulahuen, NIH3T3
Trypanosoma cruzi [2] = assay: (§1) GSK_TCAKS: pIC50 Trypanosoma cruzi Imaging: Infected Cells. […] Cells were then washed once with PBS before infection. T. cruzi trypomastigotes, collected at days 5 to 8 after infection from LLC-MK2 parasite infected cultures, were allowed to swim out for 4h at 37C from a centrifuged pellet (2,500 rpm/10 min/room temperature). Trypomastigotes were then collected and counted in a CASY Cell Counter. Trypomastigotes, in supplemented DMEM, were added to H9c2 cultures in a multiplicity of infection of 1 and incubated for 18 h. Cells were washed once with PBS before incubation of the infected H9c2 monolayer with trypsin (Life-Technologies) to detach cells from the flask. Cells were counted in a CASY Cell Counter using a 150 um capillary and their density set at 5 * 10^4 cells per mL in supplemented assay DMEM. Infected H9c2 were dispensed into 384-well poly-lysine coated assay plates at 50uL per well using a Multidrop Combi dispenser. After seeding them, the plates were incubated at 37C, 5% CO2 for 72h. Cultures were then fixed and stained by addition of 50 uL of a solution containing 8% formaldehyde and 4 uM DRAQ5 DNA dye (BioStatus, UK) per well. […] Five images were collected per well for reliable statistical analysis. Automated image analysis was performed with a script developed on Acapella High Content Imaging and Analysis Software (PerkinElmer). Output: percentage of infected cells per well as a second infection marker.; assay type: functional, organism-based, Rattus norvegicus; conditions: H9c2, 4 h
Trypanosoma cruzi [3] = assay: GSK_TCAKS: pIC50 Trypanosoma cruzi Imaging: Amastigotes/Cell. […] Cells were then washed once with PBS before infection. T. cruzi trypomastigotes, collected at days 5 to 8 after infection from LLC-MK2 parasite infected cultures, were allowed to swim out for 4h at 37C from a centrifuged pellet (2,500 rpm/10 min/room temperature). Trypomastigotes were then collected and counted in a CASY Cell Counter. Trypomastigotes, in supplemented DMEM, were added to H9c2 cultures in a multiplicity of infection of 1 and incubated for 18 h. Cells were washed once with PBS before incubation of the infected H9c2 monolayer with trypsin (Life-Technologies) to detach cells from the flask. Cells were counted in a CASY Cell Counter using a 150 um capillary and their density set at 5 * 10^4 cells per mL in supplemented assay DMEM. Infected H9c2 were dispensed into 384-well poly-lysine coated assay plates at 50uL per well using a Multidrop Combi dispenser. After seeding them, the plates were incubated at 37C, 5% CO2 for 72h. Cultures were then fixed and stained by addition of 50 uL of a solution containing 8% formaldehyde and 4 uM DRAQ5 DNA dye (BioStatus, UK) per well. […] Five images were collected per well for reliable statistical analysis. Automated image analysis was performed with a script developed on Acapella High Content Imaging and Analysis Software (PerkinElmer). Output: number of amastigotes per cell as infection level measurement.; assay type: functional, organism-based, Rattus norvegicus; conditions: H9c2, 4 h
Trypanosoma cruzi [4] = assay: as §1, with “H2C9” for “Trypanosoma cruzi”, “H9c2 Host Cardiomyocytes.” for “Infected Cells.”, “Number” for “percentage”, “H9c2 Host Cardiomyocytes nuclei to determine drug-related cytotoxicity.” for “infected cells per well as a second infection marker.”; assay type: functional, organism-based, Rattus norvegicus; conditions: H9c2, 4 h
Leishmania donovani [5] = assay: GSK_TCAKS: pIC50 Leishmania donovani viability assay using fluorescence intensity. Assay plates (1536-well) were prepared by adding 30nL per well of compound. For single shot assay, the final compound concentration was 5uM. […] Briefly, eGFP LdBOB axenic amastigotes were harvested, fixed and counted in a CASY cell counter (Roche-Applied Science). A final concentration of 1.5 * 10^5 cells per well were prepared in amastigote media containing 500 U/mL penicillin/streptomycin (Invitrogen) and 6uL was dispensed to each experimental well using a Multidrop Combi dispenser (Thermo Scientific). 6uL of assay media was dispensed to control columns used as reference for 100% compound response. Following incubation for 72 h at 37C, 5% CO2, 2 uL of resazurin was added to each well at a final concentration of 0.5 mM in phosphate buffered saline (PBS) with IGEPAL (Sigma-Aldrich), 0.05% (v/v).; assay type: functional, organism-based
Leishmania donovani [6] = assay: (§2) GSK_TCAKS: pIC50 Leishmania donovani Imaging: Infected Macrophages. Assay plates (384-well) were prepared by adding 250nL of compound to each well. For single shot assay, the final compound concentration was 5 uM. […] Automated image analysis was performed with a script developed on Acapella High Content Imaging and Analysis Software (PerkinElmer). Output: Percent of infected macrophage cells were reported for each well.; assay type: functional, organism-based, Homo sapiens; conditions: THP-1
Leishmania donovani [7] = assay: as §2, with “Amastigotes/Macrophages.” for “Infected Macrophages.”, “Average number” for “Percent”, “amastigotes per” for “infected”, “cell” for “cells”; assay type: functional, organism-based, Homo sapiens; conditions: THP-1
Leishmania donovani [8] = assay: as §2, with “THP-1 Host” for “Infected”, “THP-1 cell count” for “Percent of infected macrophage cells”; assay type: functional, organism-based, Homo sapiens
[9] = system: Trypanosoma brucei brucei; assay: GSK_TCAKS: pIC50 Trypanosoma brucei viability assay using fluorescence intensity. Assay plates (1536-well) were prepared by dispensing 25nL of compound solution per well using an Echo acoustic dispenser (Labcyte).; assay type: functional, organism-based; conditions: Lister 427, 2 h
[10] = system: Trypanosoma brucei brucei; assay: GSK_TCAKS: pIC50 Trypanosoma brucei viability assay using luminiscence. Assay plates (1536-well) were prepared. T. brucei cultures were harvested and counted in a CASY cell counter. A parasite suspension was prepared at a final concentration of 5 * 10^4 cells/mL in complete HMI9 medium and 6uL was dispensed to all wells containing compounds using a Multidrop Combi dispenser. 6uL of HMI9 media with 0.4% DMSO were dispensed to control columns. Plates were incubated for 24 h at 37C, 5% CO2 then tempered for 10 min at room temperature. ATP content was quantified by adding 4 uL of CellTiter-Glo Reagent (Promega) according to the manufacturer's instructions. Luminescence was measured using a ViewLux.; assay type: functional, organism-based; conditions: Lister 427, CASY
[11] = GSK_TCAKS: pIC50 HepG2 human cell line viability assay using luminiscence. […] Seeding density was checked to ensure that new mono-layers were not more than 50% confluent at the time of harvesting. Cell suspension was added to 500 mL of the same medium at a final density of 1.2 * 10^5 cells/mL. This cell suspension was dispensed (25 uL, 3000 cells per well) into 384-well clear-bottom plates using a Multidrop Combi dispenser. Prior to addition of the cell suspension, the screening compounds (250 nL) were pre-dispensed into the plates with an Echo liquid handler. Plates were incubated for 48 h at 37C, 5% CO2. After incubation, plates equilibrated at room temperature for 30 min before proceeding to develop the luminescent signal. The signal developer, CellTiter-Glo Reagent, was allowed to equilibrate at room temperature for 30 min and added to the plates (25uL per well) using a Multidrop Combi dispenser. Plates were left for 10 min at room temperature for stabilization and then read using a ViewLux.; assay type: toxicity, cell-based
[12] = biological target: Sterol 14-alpha demethylase (Trypanosoma cruzi (strain CL Brener), UniProt Q7Z1V1); assay: GSK_TCAKS: pIC50 CYP51 from Trypanosoma cruzi.; assay type: functional
Chain of Sterol 14-alpha demethylase (Q7Z1V1 whole entry): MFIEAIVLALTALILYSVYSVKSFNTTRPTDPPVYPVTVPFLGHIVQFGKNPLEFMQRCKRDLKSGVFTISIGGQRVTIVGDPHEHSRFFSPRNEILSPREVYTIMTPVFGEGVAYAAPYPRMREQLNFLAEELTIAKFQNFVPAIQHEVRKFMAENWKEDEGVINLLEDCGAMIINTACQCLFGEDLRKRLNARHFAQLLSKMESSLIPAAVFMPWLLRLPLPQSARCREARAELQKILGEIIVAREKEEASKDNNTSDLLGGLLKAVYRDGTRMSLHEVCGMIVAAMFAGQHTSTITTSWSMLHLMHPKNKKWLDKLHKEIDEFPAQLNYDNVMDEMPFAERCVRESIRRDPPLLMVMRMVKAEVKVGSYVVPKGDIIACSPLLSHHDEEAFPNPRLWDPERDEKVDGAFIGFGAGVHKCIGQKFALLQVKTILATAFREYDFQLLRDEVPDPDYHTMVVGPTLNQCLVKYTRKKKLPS

CC(C)CC(=O)NC(c1cccs1)c1ccc2cccnc2c1O (stereo not given)
IC50 (Trypanosoma cruzi [1]): 1580 nM | IC50 (Trypanosoma cruzi [2]): 1260 nM | IC50 (Trypanosoma cruzi [3]): 794 nM | IC50 (Trypanosoma cruzi [4]): 2 µM | IC50 (Leishmania donovani [5]): 6.31 µM | IC50 (Leishmania donovani [6]): 7.94 µM | IC50 (Leishmania donovani [7]): 3160 nM | IC50 (Leishmania donovani [8]): 1.58 µM | IC50 [9]: 631 nM | IC50 [10]: 631 nM | IC50 at 48 h [11]: > 100 µM | IC50 [12]: 50.1 µM

COc1ccccc1-n1c(SCC(=O)Nc2ccc3c(c2)OCO3)nc2c(c1=O)SCC2
IC50 (Trypanosoma cruzi [1]): 39800 nM | IC50 (Trypanosoma cruzi [2]): 15800 nM | IC50 (Trypanosoma cruzi [3]): 7940 nM | IC50 (Trypanosoma cruzi [4]): > 50.1 µM | IC50 (Leishmania donovani [5]): 10 µM | IC50 (Leishmania donovani [6]): 7.94 µM | IC50 (Leishmania donovani [7]): 5010 nM | IC50 (Leishmania donovani [8]): > 50.1 µM | IC50 [9]: > 39800 nM | IC50 [10]: > 39800 nM | IC50 at 48 h [11]: > 100 µM | IC50 [12]: 63.1 µM

CC(C)(C)c1csc(NC(=O)c2ccc([N+](=O)[O-])s2)n1
IC50 (Trypanosoma cruzi [1]): 158 nM | IC50 (Trypanosoma cruzi [2]): 316 nM | IC50 (Trypanosoma cruzi [3]): 200 nM | IC50 (Trypanosoma cruzi [4]): 12.6 µM | IC50 (Leishmania donovani [5]): 1.58 µM | IC50 (Leishmania donovani [6]): 3.16 µM | IC50 (Leishmania donovani [7]): 2510 nM | IC50 (Leishmania donovani [8]): > 50.1 µM | IC50 [9]: 200 nM | IC50 [10]: 1580 nM | IC50 at 48 h [11]: 50.1 µM | IC50 [12]: 7.94 µM

CCN(Cc1nc2ccc(C(=O)N3CCN(c4ncccn4)CC3)cc2[nH]1)C1CCCc2cccnc21 (stereo not given)
IC50 (Trypanosoma cruzi [1]): 1260 nM | IC50 (Trypanosoma cruzi [2]): 12600 nM | IC50 (Trypanosoma cruzi [3]): 2000 nM | IC50 (Trypanosoma cruzi [4]): 15.8 µM | IC50 (Leishmania donovani [5]): 5.01 µM | IC50 (Leishmania donovani [6]): 3.98 µM | IC50 (Leishmania donovani [7]): 1580 nM | IC50 (Leishmania donovani [8]): 20 µM | IC50 [9]: 2510 nM | IC50 [10]: 5010 nM | IC50 at 48 h [11]: > 100 µM | IC50 [12]: 7.94 µM

O=C(Nc1nc(-c2ccc(F)cc2)cs1)c1ccc([N+](=O)[O-])s1
IC50 (Trypanosoma cruzi [1]): 200 nM | IC50 (Trypanosoma cruzi [2]): 251 nM | IC50 (Trypanosoma cruzi [3]): 158 nM | IC50 (Trypanosoma cruzi [4]): 3.98 µM | IC50 (Leishmania donovani [5]): 0.631 µM | IC50 (Leishmania donovani [6]): 1.26 µM | IC50 (Leishmania donovani [7]): 1000 nM | IC50 (Leishmania donovani [8]): 7.94 µM | IC50 [9]: 251 nM | IC50 [10]: 1260 nM | IC50 at 48 h [11]: 12.6 µM | IC50 [12]: 50.1 µM

COc1ccc(-c2csc(NC(=O)c3ccc([N+](=O)[O-])s3)n2)cc1
IC50 (Trypanosoma cruzi [1]): 158 nM | IC50 (Trypanosoma cruzi [2]): 251 nM | IC50 (Trypanosoma cruzi [3]): 200 nM | IC50 (Trypanosoma cruzi [4]): 31.6 µM | IC50 (Leishmania donovani [5]): 3.16 µM | IC50 (Leishmania donovani [6]): 3.98 µM | IC50 (Leishmania donovani [7]): 1580 nM | IC50 (Leishmania donovani [8]): > 50.1 µM | IC50 [9]: 79.4 nM | IC50 [10]: 794 nM | IC50 at 48 h [11]: > 100 µM | IC50 [12]: > 100 µM

CN(Cc1nc2cccc(C(=O)N3CCN(Cc4ccccc4)CC3)c2[nH]1)C1CCCc2cccnc21 (stereo not given)
IC50 (Trypanosoma cruzi [1]): 794 nM | IC50 (Trypanosoma cruzi [2]): 501 nM | IC50 (Trypanosoma cruzi [3]): 501 nM | IC50 (Trypanosoma cruzi [4]): 7.94 µM | IC50 (Leishmania donovani [5]): 5.01 µM | IC50 (Leishmania donovani [6]): 1.26 µM | IC50 (Leishmania donovani [7]): 794 nM | IC50 (Leishmania donovani [8]): 10 µM | IC50 [9]: 631 nM | IC50 [10]: 1000 nM | IC50 at 48 h [11]: 12.6 µM | IC50 [12]: 39.8 µM

O=C(COc1ccccc1)Nc1ccccc1C(=O)Nc1nccs1
IC50 (Trypanosoma cruzi [1]): > 50100 nM | IC50 (Trypanosoma cruzi [2]): > 50100 nM | IC50 (Trypanosoma cruzi [3]): > 50100 nM | IC50 (Trypanosoma cruzi [4]): > 50.1 µM | IC50 (Leishmania donovani [5]): > 50.1 µM | IC50 (Leishmania donovani [6]): > 50.1 µM | IC50 (Leishmania donovani [7]): > 50100 nM | IC50 (Leishmania donovani [8]): 7.94 µM | IC50 [9]: 398 nM | IC50 [10]: 631 nM | IC50 at 48 h [11]: > 100 µM | IC50 [12]: > 100 µM

CCOc1ccccc1C(=O)Nc1nnc(-c2ccc3c(c2)OCO3)s1
IC50 (Trypanosoma cruzi [1]): 631 nM | IC50 (Trypanosoma cruzi [2]): 79.4 nM | IC50 (Trypanosoma cruzi [3]): 63.1 nM | IC50 (Trypanosoma cruzi [4]): > 50.1 µM | IC50 (Leishmania donovani [5]): 0.794 µM | IC50 (Leishmania donovani [6]): 0.501 µM | IC50 (Leishmania donovani [7]): 316 nM | IC50 (Leishmania donovani [8]): > 50.1 µM | IC50 [9]: > 39800 nM | IC50 [10]: > 39800 nM | IC50 at 48 h [11]: > 100 µM | IC50 [12]: > 100 µM

COc1ccc(-c2csc(NC(=O)c3ccc([N+](=O)[O-])s3)n2)cc1OC
IC50 (Trypanosoma cruzi [1]): 100 nM | IC50 (Trypanosoma cruzi [2]): 100 nM | IC50 (Trypanosoma cruzi [3]): 79.4 nM | IC50 (Trypanosoma cruzi [4]): 6.31 µM | IC50 (Leishmania donovani [5]): 1 µM | IC50 (Leishmania donovani [6]): 1.26 µM | IC50 (Leishmania donovani [7]): 1260 nM | IC50 (Leishmania donovani [8]): 31.6 µM | IC50 [9]: 126 nM | IC50 [10]: 631 nM | IC50 at 48 h [11]: 10 µM | IC50 [12]: > 100 µM
